According to US4818770A, “Prevention of a plant disease by specific inhibition of fungal polyamine biosynthesis” (priority 1986, dated 1989):
Values joined by “and” are separate entries in the source; they are usually repeats but may differ in a detail not shown here. Equal values may be shown once. Read-outs that look alike come from different tables or passages of the source.

Experiments:
[1] = test system: bean rust uredospores; test: Germination and differentiation of bean rust uredospores in agar; format: cell-based, Uromyces phaseoli; settings: for inhibition at 100 µM / inhibition at 500 µM / inhibition at 1000 µM / inhibition at 5000 µM: Uromyces phaseoli
[2] = test system: Colletotrichum lagenarium; test: Infection of National Pickling cucumber plants by cucumber anthracnose
[3] = test system: Verticillium dahliae; test: Radial mycelial growth of Verticillium dahliae in vitro; format: cell-based; settings: Verticillium dahliae, read-out: inhibition of radial growth relative to that observed with DFMO
[4] = test system: P. recondita f. sp. tritici; format: in vivo, Puccinia recondita f. sp. tritici
[5] = test system: Uromyces phaseoli; test: Bean rust lesions on unifoliolate leaves of Pinto bean sprayed before or after inoculation; format: in vivo
[6] = test system: bean plants (Phaseolus vulgaris cv Pinto); test: Effect of sprays on growth and appearance of bean plants; format: in vivo; settings: sprays 0.01, 0.1 and 1.0 mM
Method: Unifoliolate leaves of 10-day-old bean seedlings were sprayed (400 ul per leaf) with DFMO or alpha-difluoromethylarginine (DFMA) at concentrations of 0.01-5 mM, before or after inoculation with uredospores of the bean rust, Uromyces phaseoli, Race 0. The inhibitor solutions were prepared in 0.01% Tween 20, with the pH adjusted to 7.0. Control plants without inhibitor were sprayed similarly and were allowed to dry before inoculation with the pathogen. After inoculation with rust uredospores (25 mg/100 ml of 0.01% Tween 20) all plants were placed in dew chambers (100% relative humidity) for 16 hours at 19° C. in total darkness. After exposures to inhibitors and uredospores, all plants were returned to the greenhouse and arranged randomly. Disease severity was evaluated 7 days after inoculation by counting foliar lesions. In control plants and those treated with low concentrations of DFMO, uredospores were collected randomly from each treatment to determine percent germination and pathogenicity. For determination of germination, spores were dusted onto Petri plates containing 10 mM 2-(N-morpholino)ethanesulfonic acid (Mes) at pH 7.0, 3 mM CaCl2, 2 mM MgSO4, and 1% purified agar, and incubated for 3 hr at 19° C. in the light.

[7] = test system: PA titers of bean leaves; test: Polyamine titers in leaves of sprayed bean plants; format: in vivo, Phaseolus vulgaris; settings: sprays 0.01, 0.1 and 1.0 mM; 1, 3 and 8 days later
Method: PA analysis was performed on leaf samples collected from inhibitor-sprayed bean plants. Leaf samples were ground in prechilled mortars with 10% (w/v) HClO4 at a ratio of 200 mg fresh weight leaf per ml HClO4. Homogenates were centrifuged at 26,00 g for 20 minutes at 4° C. The clear supernatant fractions were used for dansylation according to a procedure previously described. Briefly, 0.4 ml of freshly prepared dansyl (Diaminonaphthylsulfonyl)-C1 (Sigma), 5 mg/ml in acetone, and 0.2 ml of saturated Na2 CO3 were added to 0.2 ml of the supernatant fraction. The dansylated PA were extracted with 0.25 ml benzene and the clear benzene layer was used for PA determinations by TLC on LK6D high resolution silica gel plates (Whatman). After development in chloroform:triethylamine (25:2 v/v) for about 1 hour and location by fluorescence under a UV lamp, the dansylpolyamine bands were scraped off, eluted in 4 ml of ethyl acetate and quantified with an Aminco-Bowman fluorimeter.
The effect of DFMO and DFMA sprays (0.01, 0.1, and 1.0 mM) on PA titers was also examined. Unifoliolate leaves were sprayed in the usual way and examined 1 and 3 days later, while the first trifolioloate leaves, unexpanded ata the time of spray and themselves unsprayed, were examined 8 days later.

[8] = test system: P. graminis f. sp. tritici; format: in vivo, Puccinia graminis f. sp. tritici
[9] = test system: Erysiphe polygoni; test: Infection by bean powdery mildew; format: in vivo
[10] = test system: Puccinia graminis fsp avenae; format: in vivo
[11] = test system: Puccinia sorghi; test: Infection by corn rust; format: in vivo
[12] = test system: Verticillium dahliae; test: Verticillium wilt symptoms in Bonny Best tomato after foliar spray; format: in vivo; settings: concentrations up to 10 mM
[13] = read-out: Differentiation % Inhibiton
[14] = read-out: Germination % Inhibition
[15] = postinoculation exposure, inhibitor 1.0 mM
[16] = postinoculation exposure, inhibitor 5.0 mM
[17] = preinoculation exposure, inhibitor 1.0 mM
[18] = preinoculation exposure, inhibitor 5.0 mM

`N=C(N)NCCC[C@](N)(C(=O)O)C(F)F` [DFMA, alpha-difluoromethylarginine] showed a Differentiation % ([1]; 0.1 mM) of 46%, a Germination % ([1]; 0.1 mM) of 36% and a Differentiation % ([1]; 0.5 mM) of 30%. It also gave a Germination % ([1]; 0.5 mM) of 36%, a Differentiation % ([1]; 1.0 mM) of 23% and a Germination % ([1]; 1.0 mM) of 31%. It also gave a Differentiation % ([1]; 5.0 mM) of 18%, a Germination % ([1]; 5.0 mM) of 26% and an inhibition at 100 µM [1, 13] of 22%. The inhibition at 500 µM [1, 13] was 49%, the inhibition at 1000 µM [1, 13] was 61% and the inhibition at 5000 µM [1, 13] was 69%. It also gave an inhibition at 100 µM [1, 14] of 14%, an inhibition at 500 µM [1, 14] of 14% and an inhibition at 1000 µM [1, 14] of 26%. The inhibition at 5000 µM [1, 14] was 38%, the Lesions per plant ([2]; 1.0 mM) was 73 per plant and the Percent control ([2]; 1.0 mM) was 10%. The Lesions per plant ([2]; 5.0 mM) was 71 per plant, the Percent control ([2]; 5.0 mM) was 12% and the Lesions per plant ([2]; 10.0 mM) was 73 per plant. For the same compound, the Percent control ([2]; 10.0 mM) was 10%, the inhibition at 500 µM [3] was ~50% and the Uredia/plant ([4]; 0.01 mM) was 74 Uredia/plant and 49 Uredia/plant. For the same compound, the Uredia/plant ([4]; 0.025 mM) was 62 Uredia/plant and 40 Uredia/plant, the “% control” value ([4]; 0.065 mM) was 32% and 54% and the Uredia/plant ([4]; 0.065 mM) was 54 Uredia/plant and 37 Uredia/plant. For the same compound, the “% control” value ([4]; 0.10 mM) was 37% and 51%, the Uredia/plant ([4]; 0.10 mM) was 50 Uredia/plant and 39 Uredia/plant and the “% control” value ([4]; 0.13 mM) was 34% and 47%. The Uredia/plant ([4]; 0.13 mM) was 53 Uredia/plant and 42 Uredia/plant, the “% control” value ([4]; 0.16 mM) was 39% and 49% and the Uredia/plant ([4]; 0.16 mM) was 49 Uredia/plant and 41 Uredia/plant. The “% control” value ([4]; 0.20 mM) was 46% and 47%, the Uredia/plant ([4]; 0.20 mM) was 43 Uredia/plant and 42 Uredia/plant and the “% control” value ([4]; 1.00 mM) was 57% and 77%. For the same compound, the Uredia/plant ([4]; 1.00 mM) was 34 Uredia/plant and 18 Uredia/plant, the “reduction of bean rust infection” value ([5]; even at 5.0 mM) was “ineffective” and the “germination or pathogenicity of uredospores collected from treated plants” value ([5]; plants treated with low concentrations) was “no decrease in germination or pathogenicity”. The “Lesions per cm^2” value [5, 15] was 56 ± 3 per cm^2, the Lesions per leaf [5, 15] was 2829 ± 242 per leaf and the “Lesions per cm^2” value [5, 16] was 50 ± 2 per cm^2. The Lesions per leaf [5, 16] was 2195 ± 169 per leaf, the “Lesions per cm^2” value [5, 17] was 51 ± 4 per cm^2 and the Lesions per leaf [5, 17] was 3101 ± 217 per leaf. The “Lesions per cm^2” value [5, 18] was 46 ± 4 per cm^2, the Lesions per leaf [5, 18] was 2928 ± 317 per leaf and the “growth of the bean plants” value [6] was “no effect”. For the same compound, the “PA levels in treated leaves” value [7] was “no significant reductions”, the “control of wheat stem rust” value ([8]; 0.01 to 1.0 mM) was “relatively ineffective” and the “% control” value ([8]; post-inoculation, 0.01 mM) was 27%. The Uredia/plant ([8]; post-inoculation, 0.01 mM) was 154 Uredia/plant, the “% control” value ([8]; post-inoculation, 0.025 mM) was 36% and the Uredia/plant ([8]; post-inoculation, 0.025 mM) was 134 Uredia/plant. The “% control” value ([8]; post-inoculation, 0.065 mM) was 29%, the Uredia/plant ([8]; post-inoculation, 0.065 mM) was 150 Uredia/plant and the “% control” value ([8]; post-inoculation, 0.10 mM) was 28%. The Uredia/plant ([8]; post-inoculation, 0.10 mM) was 152 Uredia/plant, the “% control” value ([8]; post-inoculation, 0.13 mM) was 42% and the Uredia/plant ([8]; post-inoculation, 0.13 mM) was 122 Uredia/plant. For the same compound, the “% control” value ([8]; post-inoculation, 0.16 mM) was 42%, the Uredia/plant ([8]; post-inoculation, 0.16 mM) was 122 Uredia/plant and the “% control” value ([8]; post-inoculation, 0.20 mM) was 41%. The Uredia/plant ([8]; post-inoculation, 0.20 mM) was 124 Uredia/plant, the “% control” value ([8]; post-inoculation, 1.00 mM) was 40% and the Uredia/plant ([8]; post-inoculation, 1.00 mM) was 126 Uredia/plant. The “% control” value ([8]; pre-inoculation, 0.01 mM) was 9%, the Uredia/plant ([8]; pre-inoculation, 0.01 mM) was 192 Uredia/plant and the “% control” value ([8]; pre-inoculation, 0.025 mM) was 20%. For the same compound, the Uredia/plant ([8]; pre-inoculation, 0.025 mM) was 167 Uredia/plant, the “% control” value ([8]; pre-inoculation, 0.065 mM) was 20% and the Uredia/plant ([8]; pre-inoculation, 0.065 mM) was 168 Uredia/plant. The “% control” value ([8]; pre-inoculation, 0.10 mM) was 21%, the Uredia/plant ([8]; pre-inoculation, 0.10 mM) was 165 Uredia/plant and the “% control” value ([8]; pre-inoculation, 0.13 mM) was 8%. The Uredia/plant ([8]; pre-inoculation, 0.13 mM) was 193 Uredia/plant, the “% control” value ([8]; pre-inoculation, 0.16 mM) was 11% and the Uredia/plant ([8]; pre-inoculation, 0.16 mM) was 186 Uredia/plant. The “% control” value ([8]; pre-inoculation, 0.20 mM) was 18%, the Uredia/plant ([8]; pre-inoculation, 0.20 mM) was 172 Uredia/plant and the “% control” value ([8]; pre-inoculation, 1.00 mM) was 30%. For the same compound, the Uredia/plant ([8]; pre-inoculation, 1.00 mM) was 148 Uredia/plant, the Percent control ([9]; 1 mM) was 7% and the Percent control ([9]; 5 mM) was 35%. The Percent control ([9]; 10 mM) was 35%, the Percent control ([10]; 0.01 mM) was 40.4% and the Percent control ([10]; 0.025 mM) was 32.6%. It also gave a Percent control ([10]; 0.065 mM) of 41.9%, a Percent control ([10]; 0.10 mM) of 53.1% and a Percent control ([10]; 0.13 mM) of 61.5%. The Percent control ([10]; 0.16 mM) was 57.0%, the Percent control ([10]; 0.20 mM) was 63.8% and the Percent control ([10]; 1.00 mM) was 86.0%. The “effectiveness against oat stem rust compared with DFMO” value ([10]; in vivo) was “nearly as effective as DFMO”, the “Percent control” value ([11]; 0.01 mM) was 13.0% and the “Percent control” value ([11]; 0.025 mM) was 7.2%. For the same compound, the “Percent control” value ([11]; 0.065 mM) was 0.0%, the “Percent control” value ([11]; 0.10 mM) was 0.0% and the “Percent control” value ([11]; 0.13 mM) was 9.3%. For the same compound, the “Percent control” value ([11]; 0.16 mM) was 27.1%, the “Percent control” value ([11]; 0.20 mM) was 14.0% and the “control of corn rust” value ([11]; up to 0.20 mM) was “essentially ineffective”. The “symptom severity and time of symptom expression” value [12] was “did not alter either symptom severity nor time of symptom expression”.
